Columns and labels:
Assay type in all cases: cell-based
[1] = tested on: motoneurons derived from human iPS cells (409B2 cell lines); assay: oxidative stress test, Directionality (orientation of axon) after Tau 1 immunostaining; conditions: H2O2 3 hour treatment, PBS washing, culture medium with or without Edaravone; evaluated two days after treatment; highest = negative control
Experimental: Here, cell body spheroids were produced by inoculating motoneurons derived from human iPS cells (409B2 cell lines) in the nonadherent cultivation plate 10. Then, after 10 days of cultivation, the cell body spheroids were inoculated in the first chamber 12a of the module 11 of the cultivation plate 10. Then, after 30 days of cultivation, the treatments of the following (1)-(3) conditions were accomplished.
(1) control PBS (Phosphate Buffered Saline) washing>>>culture medium
(2) H2O2 3 hour treatment>>>PBS washing>>>culture medium
(3) H2O2 3 hour treatment>>>PBS washing>>>culture medium containing Edaravone
Two days after the treatment, evaluation was done after immunostaining by marker Tau 1. The evaluation item was Directionality, which was the orientation of axon. Specifically, the orientations of objects in FIG. 22 were measured In this case, 0 degree indicated the direction of fluid conduit (channel 13). Since the axons were bundled and extended in the same direction, their morphological changes in the channel 13 could be compared between in case of under oxidative stress, as shown in FIG. 22 (b), and in case of under oxidative stress accompanied by application of antioxidant (Edaravone), which was used as neurological disease drug, as shown in FIG. 22 (c). […]

[2] = tested on: motoneurons derived from human iPS cells (409B2 cell lines); assay: calcium imaging of motoneuron spheroid with axon bundle after KCl stimulation; conditions: 1 [mol] of KCl provided to the cell spheroid after fluorescent treatment
From the text: FIG. 13 is a set of photographs showing motoneurons used for calcium imaging. In FIG. 13, (a) is a photograph of a spheroid with a bundle of axons outside the cultivation plate before adding calcium, (b) is a photograph of a spheroid with a bundle of axons outside the cultivation plate after adding calcium. In the present experiment, motoneurons derived from human iPS cells (409B2 cell lines) were used. The cell spheroids of the motoneurons were inoculated in the first chambers 12a and cultivated. The motoneurons and the cell spheroids were gained in the same way as mentioned above and the cultivation was accomplished in the same way as mentioned above. After cultivation, one of the motoneurons with a well grown and extended bundle of axons was extracted or brought out from the module 11 of the cultivation plate 10. Then 1 [mol] of KCl was provided to the cell spheroid, so that fluorescence became intense, as shown in FIG. 13(b), as a result of electrophysiological activity induced by the stimulation of KCl.

[3] = tested on: motoneurons derived from human iPS cells (409B2 cell lines); assay: ER stress test on axon bundle (form and orientation of axon); conditions: culture fluid including 1.5 [mol] of thapsigargin for 5 hours, evaluated 6 days later, versus untreated
From the text: The first experiment was accomplished to confirm the effect of ER stress against motoneuron using thapsigargin. In the first experiment, motoneurons derived from human iPS cells (409B2 cell lines) were used. The cell body spheroids of the motoneurons were inoculated in the first chambers 12a and cultivated. The motoneurons and the cell body spheroids were gained in the same way as mentioned above and the cultivation was accomplished in the same way as mentioned above. After cultivation, one of the motoneurons with a well grown and extended axon bundle was treated with culture fluid including 1.5 [mol] of thapsigargin for 5 hours. Then, 6 days later, the form of the axon bundle was evaluated, as shown in FIG. 17(b), in comparison with another axon bundle of the motoneurons not treated with any thapsigargin, as shown in FIG. 17(a). It can be said that, when suffering stress, the orientation of the axon becomes low or the axon degenerates.

SMILES | Directionality of the axon bundle in the direction of fluid conduit (0 degree), order among conditions [1] | also measured
CC1=NN(c2ccccc2)C(=O)C1 [Edaravone] | the second | 
OO [H2O2] | the third | 
[Cl-].[K+] [KCl] |  | electrophysiological activity (fluorescence) of motoneuron including cell spheroid and bundle of axons [2]: became electrophysiologically active
C/C=C(/C)C(=O)O[C@H]1C(C)=C2[C@H]([C@@H]1OC(=O)CCCCCCC)[C@@](C)(OC(C)=O)C[C@H](OC(=O)CCC)[C@@]1(O)[C@H]2OC(=O)[C@@]1(C)O [thapsigargin] |  | form of the axon bundle under ER stress [3]: became deformed
